For 23 molecules, melting point and IC50 results are on record in patent US10781183B2, “Small molecule inducers of reactive oxygen species and inhibitors of mitochondrial activity” (The Regents of the University of Michigan, priority 2016, dated 2020).

Read-outs that look alike come from different tables or passages of the source.

Data set [1] relates to Panc-1 cells. The data set is described as follows: MTT cytotoxicity assay, Panc-1. In kind it is cell-based. Particulars: Homo sapiens, three independent experiments. As to the method: (§1) MiaPaCa-2, Panc-1 and BxPC-3 pancreatic cancer cell lines were obtained from the ATCC. Normal pancreatic cells HPDE and HPNE were kindly provided (Translational Oncology Program, University of […], Ann Arbor, Mich.). Gemcitabine resistant cell line MiaPaCa-2-GR (gemcitabine resistant) was kindly provided (Department of Pathology, Wayne State University, Detroit, Mich.). All cell lines were cultured as monolayer and maintained in RPMI1640 supplemented with 10% fetal bovine serum (FBS) in a humidified atmosphere with 5% CO2 at 37° C. MiaPaCa-2-GR culture was supplemented with 200 nM gemcitabine.
(§2) Cytotoxicity of compounds was evaluated with 3-(4,5-dimethylthiazol-2-yl)-2,5-diphenyltetrazolium bromide (MTT) assay. Cells were placed in 96-well plate at 3000-8000 cells/well. After overnight attachment, compounds were added to the wells at sequential dilutions (30 nM-10 μM for most cell lines). After 72 h treatment, MTT was added into the media to a final concentration of 300 μg/mL. Cells were incubated for 3 h at 37° C., and the insoluble formazan converted by viable cells were dissolved in 150 μL of DMSO. Absorbance at 570 nm was read by microplate reader (Molecular devices, Sunnyvale, Calif.), and inhibition of cell proliferation was calculated using the following formula: Inhibition of cell proliferation (%)=(1−ODtreatment/ODcontrol)×100%
(Tetrazolium assays rely on reduction of a dye to a coloured formazan, in cell work by metabolically active cells.)

The subject of data set [2] is MiaPaCa-2 cells. The data set is described as follows: MTT cytotoxicity assay, MiaPaCa-2. The data set is classed as cell-based. Conditions: Homo sapiens, MTT assay, Mean ± SD, three independent experiments. The protocol: as §1, §2
The subject of data set [3] is BxPC-3 cells. The data set is described as follows: MTT cytotoxicity assay, BxPC-3. In kind it is cell-based. Conditions: Homo sapiens, three independent experiments. The protocol: as §1, §2
Setting [4] is: PANC-1, 72 h, Table 1, 72 h, Mean ± SD.
Where [5] appears, read: PANC-1, Table 2, Mean ± SD, read-out: IC 50 Panc-1.
Where [6] appears, read: MIA PaCa-2, 72 h, Table 1, 72 h.
The mark [7] stands for this setting: MIA PaCa-2, Table 2, read-out: IC 50 MiaPaCa-2.
The mark [8] stands for this setting: BXPC-3, 72 h, Table 1, 72 h, Mean ± SD.
Setting [9] is: BXPC-3, Table 2, Mean ± SD, read-out: IC 50 BxPC-3.

On to `O=C1C=CC(=O)c2ncncc21` [QD323, quinazoline-5,8-dione], for which the melting point (commonly the temperature of the solid-liquid transition) is more than 320 °C.

`O=C1C(Nc2ccc(Oc3ccccc3)cc2)=CC(=O)c2ncncc21` [QD324, 6-((4-phenoxyphenyl)amino)quinazoline-5,8-dione] came in with a melting point of 169 to 171 °C. The IC50 in data set [1] (setting [4]) amounted to 1.8 ± 0.2 µM. Besides, the IC50 in data set [1] (setting [5]) amounted to 1.8 ± 0.2 µM. This molecule came in with an IC50 in data set [2] (setting [6]) of 3.7 ± 0.7 µM. The IC50 in data set [2] (setting [7]) worked out at 3.7 ± 0.7 µM. Besides, the IC50 in data set [3] (setting [8]) came to 3.6 ± 0.4 µM. Also, the IC50 in data set [3] (setting [9]) came out at 3.6 ± 0.4 µM.

As for `O=C1C(Nc2ccc(OC(F)(F)F)cc2)=CC(=O)c2ncncc21` [QD327, 6-((4-(trifluoromethoxy)phenyl)amino)quinazoline-5,8-dione], the melting point stood at 114 °C. In data set [1] (setting [4]), this molecule gave an IC50 of 0.9 ± 0.1 µM. The IC50 in data set [1] (setting [5]) turned out to be 0.9 ± 0.1 µM. In data set [2] (setting [6]), the IC50 worked out at 1.4 ± 0.2 µM. In addition, in data set [2] (setting [7]), the IC50 is 1.4 ± 0.2 µM. Besides, the IC50 in data set [3] (setting [8]) was 0.9 ± 0.1 µM. The IC50 in data set [3] (setting [9]) came out at 0.9 ± 0.1 µM.

The molecule `NS(=O)(=O)c1ccc(NC2=CC(=O)c3ncncc3C2=O)cc1` [QD328, 4-((5,8-dioxo-5,8-dihydroquinazolin-6-yl)amino)benzenesulfonamide] gave a melting point of more than 320 °C. The IC50 in data set [1] (setting [4]) is more than 10 µM. For the same molecule, the IC50 in data set [1] (setting [5]) is more than 10 µM. In data set [2] (setting [6]), this molecule showed an IC50 of more than 10 µM. Further, in data set [2] (setting [7]), the IC50 is more than 10 µM. This molecule came in with an IC50 in data set [3] (setting [8]) of more than 10 µM. Also, the IC50 in data set [3] (setting [9]) was more than 10 µM.

In the case of `O=C1C(Nc2ccc(CO)cc2)=CC(=O)c2ncncc21` [QD329, 6-((4-(hydroxymethyl)phenyl)amino)quinazoline-5,8-dione], the IC50 in data set [1] (setting [4]) stood at 1 ± 0.2 µM; in data set [1] (setting [5]) it was 1 ± 0.2 µM; in data set [2] (setting [6]), 3.5 ± 1.3 µM; in data set [2] (setting [7]) it was 3.5 ± 1.3 µM; in data set [3] (setting [8]), 2.7 ± 0.3 µM; in data set [3] (setting [9]), 5.7 ± 0.3 µM.

Regarding `NC(=O)c1ccc(NC2=CC(=O)c3ncncc3C2=O)cc1` [QD330, 4-((5,8-dioxo-5,8-dihydroquinazolin-6-yl)amino)benzamide], the melting point was more than 320 °C. In addition, the IC50 in data set [1] (setting [4]) amounted to 6.3 ± 0.3 µM. The IC50 in data set [1] (setting [5]) turned out to be 6.3 ± 0.3 µM. In addition, the IC50 in data set [2] (setting [6]) is 8 ± 0.9 µM. Also, the IC50 in data set [2] (setting [7]) stood at 8 ± 0.9 µM. In data set [3] (setting [8]), this molecule had an IC50 of more than 10 µM. Besides, in data set [3] (setting [9]), the IC50 is more than 10 µM.

`COC(=O)c1ccc(NC2=CC(=O)c3ncncc3C2=O)cc1` [QD331, Methyl 4-((5,8-dioxo-5,8-dihydroquinazolin-6-yl)amino)benzoate] yielded a melting point of 226 to 230 °C. This molecule yielded an IC50 in data set [1] (setting [4]) of 1.1 ± 0.4 µM. In addition, in data set [1] (setting [5]), the IC50 was 1.1 ± 0.4 µM. In data set [2] (setting [6]), this molecule displayed an IC50 of 2.2 ± 0.4 µM. In addition, in data set [2] (setting [7]), the IC50 was determined as 2.2 ± 0.4 µM. The molecule also gave an IC50 in data set [3] (setting [8]) of 5.8 ± 0.3 µM. Also, the IC50 in data set [3] (setting [9]) turned out to be 5.8 ± 0.3 µM.

Consider `CCOC(=O)c1ccc(NC2=CC(=O)c3ncncc3C2=O)cc1` [QD332, Ethyl 4-((5,8-dioxo-5,8-dihydroquinazolin-6-yl)amino)benzoate], for which the melting point is 206 to 207 °C. In data set [1] (setting [4]), this molecule yielded an IC50 of 1.6 ± 0.3 µM. Besides, the IC50 in data set [1] (setting [5]) was determined as 1.6 ± 0.3 µM. The same molecule displayed an IC50 in data set [2] (setting [6]) of 5.5 ± 1.5 µM. The IC50 in data set [2] (setting [7]) was determined as 5.5 ± 1.5 µM. This molecule came in with an IC50 in data set [3] (setting [8]) of 5.9 ± 0.1 µM. Also, the IC50 in data set [3] (setting [9]) was 5.9 ± 0.1 µM.

`O=C1C(Nc2cccc(B(O)O)c2)=CC(=O)c2ncncc21` [QD333, (3-((5,8-dioxo-5,8-dihydroquinazolin-6-yl)amino)phenyl)boronic acid] registered a melting point of 208 to 210 °C. In data set [1] (setting [4]), this molecule gave an IC50 of 9 ± 1 µM. The IC50 in data set [1] (setting [5]) came out at 9 ± 1 µM. The molecule further displayed an IC50 in data set [2] (setting [6]) of more than 10 µM. Moreover, the IC50 in data set [2] (setting [7]) was more than 10 µM. Besides, the IC50 in data set [3] (setting [8]) is more than 10 µM. For the same molecule, the IC50 in data set [3] (setting [9]) is more than 10 µM.

As to `O=C(NCCC[P+](c1ccccc1)(c1ccccc1)c1ccccc1)c1ccc(NC2=CC(=O)c3ncncc3C2=O)cc1` [QD340, (3-(4-((5,8-dioxo-5,8-dihydroquinazolin-6-yl)amino)benzamido)propyl) triphenylphosphonium bromide], the IC50 in data set [1] (setting [4]) came to 11.7 ± 1.5 µM; in data set [1] (setting [5]) it was 11.7 ± 1.5 µM; in data set [2] (setting [6]), 15.3 ± 2.5 µM; in data set [2] (setting [7]), 15.3 ± 2.5 µM; in data set [3] (setting [8]), 21.5 ± 2.3 µM; in data set [3] (setting [9]), 21.5 ± 2.3 µM.

Regarding `COc1ccc(NC2=CC(=O)c3ncncc3C2=O)cc1OC` [QD355, 6-((3,4-dimethoxyphenyl)amino)quinazoline-5,8-dione], the IC50 in data set [1] (setting [4]) worked out at 0.9 ± 0.3 µM; in data set [1] (setting [5]) it was 0.9 ± 0.3 µM; in data set [2] (setting [6]), 1.8 ± 0.1 µM; in data set [2] (setting [7]) it was 1.8 ± 0.1 µM; in data set [3] (setting [8]), 1.5 ± 0.2 µM; in data set [3] (setting [9]), 1.5 ± 0.2 µM.

Regarding `COc1cc(NC2=CC(=O)c3ncncc3C2=O)cc(OC)c1` [QD357, 6-((3,5-dimethoxyphenyl)amino)quinazoline-5,8-dione], the IC50 is 7.2 ± 0.8 µM in data set [1] (setting [4]); 7.2 ± 0.8 µM in data set [1] (setting [5]); 7.7 ± 2 µM in data set [2] (setting [6]); 7.7 ± 2 µM in data set [2] (setting [7]); 16.3 ± 1.5 µM in data set [3] (setting [8]); 16.3 ± 1.5 µM in data set [3] (setting [9]).

As to `O=C(NCCC[P+](c1ccccc1)(c1ccccc1)c1ccccc1)c1cccc(NC2=CC(=O)c3ncncc3C2=O)c1` [QD359, (3-(3-((5,8-dioxo-5,8-dihydroquinazolin-6-yl)amino)benzamido)propyl) triphenylphosphonium bromide], the IC50 came to 14.3 ± 1.5 µM in data set [1] (setting [4]); 14.3 ± 1.5 µM in data set [1] (setting [5]); 16.3 ± 3.6 µM in data set [2] (setting [6]); 16.3 ± 3.5 µM in data set [2] (setting [7]); 21.3 ± 2.5 µM in data set [3] (setting [8]); 21.3 ± 2.5 µM in data set [3] (setting [9]).

Turning to `O=C1C(Nc2cccc(-c3ccccc3)c2)=CC(=O)c2ncncc21` [QD385, 6-(Biphenyl-3-ylamino)quinazoline-5,8-dione], the melting point was in the range of 199 to 200 °C.

`O=C1C(Nc2ccc(-c3ccc(Cl)cc3)cc2)=CC(=O)c2ncncc21` [QD386, 6-(4′-Chlorobiphenyl-4-ylamino)quinazoline-5,8-dione]: the melting point lay within 292 to 293 °C.

For `O=C1C(Nc2ccc(-c3cc(Cl)cc(Cl)c3)cc2)=CC(=O)c2ncncc21` [QD387, 6-(3′,5′-Dichlorobiphenyl-4-ylamino)quinazoline-5,8-dione], the melting point lay in the range of 260 to 261 °C.

In turn, `O=C1C(Nc2ccc(N3CCCCC3)cc2)=CC(=O)c2ncncc21` [QD388, 6-(4-(Piperidin-1-yl)phenylamino)quinazoline-5,8-dione] yielded a melting point of 209 °C.

`O=C1C(Nc2ccc(N3CCOCC3)cc2)=CC(=O)c2ncncc21` [QD389, 6-(4-Morpholinophenylamino)quinazoline-5,8-dione]: the melting point was 226 to 227 °C.

The molecule `O=C1C(Nc2cccc3c2-c2ccccc2C3)=CC(=O)c2ncncc21` [QD390, 6-(9H-Fluoren-4-ylamino)quinazoline-5,8-dione] came in with a melting point of 217 °C.

For the molecule `O=C1C(Nc2ccc3c(c2)Cc2ccccc2-3)=CC(=O)c2ncncc21` [QD391, 6-(9H-Fluoren-2-ylamino)quinazoline-5,8-dione], the melting point lay in the range of 236 to 237 °C.

In turn, `CCc1ccc(-c2ccc(NC3=CC(=O)c4ncncc4C3=O)cc2)cc1` [QD392, 6-(4′-Ethylbiphenyl-4-ylamino)quinazoline-5,8-dione] came in with a melting point of 247 °C.

For the molecule `O=C1C(Nc2ccc(C3CCCCC3)cc2)=CC(=O)c2ncncc21` [QD393, 6-(4-Cyclohexylphenylamino)quinazoline-5,8-dione], the melting point worked out at 234 °C.

`O=C1C(Nc2ccc(-c3ccccn3)cc2)=CC(=O)c2ncncc21` [QD395, 6-(4-(Pyridin-2-yl)phenylamino)quinazoline-5,8-dione]: the melting point amounted to 239 °C.
